# Experimental data from patent publication US20240140944A1, “NOVEL NAPHTHYRIDINONE DERIVATIVE HAVING INHIBITORY ACTIVITY AGAINST ECTONUCLEOTIDE PYROPHOSPHATASE-PHOSPHODIESTERASE AND USE THEREOF” (TXINNO BIOSCIENCE INC., priority 2020, published 2024).
# Counter-ions that a name gives are not always drawn.
# Target: T1, human recombinant ENPP1 enzymes (Homo sapiens, UniProt P22413)
# T1 construct: purchased R & D systems
# T1 sequence (P22413 1-925): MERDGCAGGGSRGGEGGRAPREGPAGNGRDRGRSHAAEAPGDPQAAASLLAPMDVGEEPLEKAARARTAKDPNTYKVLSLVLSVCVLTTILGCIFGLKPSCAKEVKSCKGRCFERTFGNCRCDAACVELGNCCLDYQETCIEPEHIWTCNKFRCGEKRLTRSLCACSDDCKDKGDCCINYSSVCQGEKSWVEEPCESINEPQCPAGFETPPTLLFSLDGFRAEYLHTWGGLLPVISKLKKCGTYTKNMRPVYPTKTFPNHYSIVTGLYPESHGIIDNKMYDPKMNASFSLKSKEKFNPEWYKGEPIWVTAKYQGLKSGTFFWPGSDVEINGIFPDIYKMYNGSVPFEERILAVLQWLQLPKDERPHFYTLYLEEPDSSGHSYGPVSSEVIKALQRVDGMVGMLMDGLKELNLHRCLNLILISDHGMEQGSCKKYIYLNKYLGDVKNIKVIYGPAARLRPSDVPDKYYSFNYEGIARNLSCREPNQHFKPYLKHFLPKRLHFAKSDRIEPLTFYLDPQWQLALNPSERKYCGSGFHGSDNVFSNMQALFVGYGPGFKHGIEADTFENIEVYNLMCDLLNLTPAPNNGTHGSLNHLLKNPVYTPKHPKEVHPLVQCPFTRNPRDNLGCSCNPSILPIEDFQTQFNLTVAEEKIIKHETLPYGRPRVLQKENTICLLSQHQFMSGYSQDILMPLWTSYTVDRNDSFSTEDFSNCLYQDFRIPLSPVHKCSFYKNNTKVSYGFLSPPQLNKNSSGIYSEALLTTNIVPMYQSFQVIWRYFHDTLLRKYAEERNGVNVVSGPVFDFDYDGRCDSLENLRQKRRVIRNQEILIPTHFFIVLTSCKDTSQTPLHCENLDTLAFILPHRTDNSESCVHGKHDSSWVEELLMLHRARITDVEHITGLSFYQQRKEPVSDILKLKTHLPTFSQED
# Assay: ENPP1 Enzyme Assay with cGAMP Substrate (AMP-Glo)
# Assay type: biochemical
# Details: human recombinant ENPP1 3 ng/reaction, cGAMP 5 μM, 37° C. 90 minutes, average of two or more tests; read-out: Enzymatic activity IC50
# Method: ENPP1 hydrolyzes nucleotides or nucleotide derivatives to produce nucleoside-5′-monophosphate and pyrophosphate. In addition, ENPP1 hydrolyzes 2′,3′-cGAMP to produce 5′-adenosine monophosphate (AMP) and 5′-guanosine monophosphate (GMP). AMP produced from the reaction is measured using the AMP-Glo® kit (Promega). The AMP-Glo® kit contains two reagents. The first reagent terminates the AMP-producing enzymatic reaction, removes ATP and converts the produced AMP into ADP. The second reagent converts ADP to ATP which is used to generate luminescence in the luciferase reaction. The amount of luminescence measured is proportional to the amount of AMP produced by ENPP1.
# The final reaction mixture contains 50 mM Tris (pH 8.5) buffer, 250 mM NaCl, 0.5 mM CaCl2), 1 μM ZnCl2, 5% glycerol and 1% DMSO. Serially diluted ENPP1 inhibitors (typically in the range of 10 μM to 0.5 nM) were pre-stored with human recombinant ENPP1 enzymes (R & D systems) at 3 ng/reaction and room temperature (RT) for 5 to 10 minutes. The reaction was initiated by addition of cGAMP (at a final concentration of 5 μM) and reacted at 37° C. for 90 minutes. At the end of the reaction, 10 μl of the AMP-Glo first reagent was added to stop the reaction and the result was stored at room temperature for 1 hour. After storage, 20 μl of an AMP detection solution (a mixture of AMP-Glo II reagent and Kinase-Glo at a ratio of 1:100) was added and stored at room temperature for 1 hour. Luminescence signals were measured using a Victor® plate reader (Perkin Elmer). The maximal activity control (containing enzymes and substrates in the presence of 1% DMSO; MAX) and the minimal activity control (containing substrates and 1% DMSO; MIN) were evaluated simultaneously. In each experiment, serially diluted reference ENPP1 inhibitors were tested as well. IC50, indicating % residual activity versus compound concentration was determined by fitting inhibition curves using the 3-parameter analysis of GraphPad Prism® software. Serially diluted samples of one compound were tested two or more times and an average IC50 of each compound was calculated.
row,IC50 [µM],Compound
1,< 1,"NS(=O)(=O)NC1Cc2ccc(Nc3ccnc4[nH]c(=O)ccc34)cc2C1 (stereo not shown) [Example 107, N-(5-((7-oxo-7,8-dihydro-1,8-naphthyridin-4-yl)amino)-2,3-dihydro-1H-inden-2-yl)sulfamide dihydrochloride]"
2,> 10,"CN(c1ccc2c(c1)CN(S(N)(=O)=O)CC2)c1ccnc2[nH]c(=O)ccc12 [Example 108, (7-(methyl(7-oxo-7,8-dihydro-1,8-naphthyridin-4-yl)amino)-3,4-dihydroisoquinolin-2(1H)-yl)sulfamide dihydrochloride]"
3,< 1,"NC1CCN(c2ccnc3[nH]c(=O)ccc23)CC1 [Example 113, 5-(4-aminopiperidin-1-yl)-1,8-naphthyridin-2(1H)-one hydrochloride]"
4,< 1,"NCC1CCN(c2ccnc3[nH]c(=O)ccc23)CC1 [Example 114, 5-(4-(aminomethyl)piperidin-1-yl)-1,8-naphthyridin-2(1H)-one hydrochloride]"
5,< 1,"NCCC1CCN(c2ccnc3[nH]c(=O)ccc23)CC1 [Example 115, 5-(4-(2-aminoethyl)piperidin-1-yl)-1,8-naphthyridin-2(1H)-one hydrochloride]"
6,1 to 10,"O=c1ccc2c(N3CCC4(CCNC4)CC3)ccnc2[nH]1 [Example 117, 5-(2,8-diazaspiro[4,5]decan-8-yl)-1,8-naphthyridin-2(1H)-one hydrochloride]"
7,> 10,"Cn1c(=O)ccc2c(N3CCC(CN)CC3)ccnc21 [Example 118, 5-(4-(aminomethyl)piperidin-1-yl)-1-methyl-1,8-naphthyridin-2(1H)-one hydrochloride]"
8,< 1,"NS(=O)(=O)NC1CCN(c2ccnc3[nH]c(=O)ccc23)CC1 [Example 123, N-(1-(7-oxo-7,8-dihydro-1,8-naphthyridin-4-yl)piperidin-4-yl)sulfamide]"
9,< 1,"NS(=O)(=O)NCC1CCN(c2ccnc3[nH]c(=O)ccc23)CC1 [Example 124, N-((1-(7-oxo-7,8-dihydro-1,8-naphthyridin-4-yl)piperidin-4-yl)methyl)sulfamide]"
10,< 1,"NS(=O)(=O)NCCC1CCN(c2ccnc3[nH]c(=O)ccc23)CC1 [Example 125, N-(2-(1-(7-oxo-7,8-dihydro-1,8-naphthyridin-4-yl)piperidin-4-yl)ethyl)sulfamide]"
11,< 1,"NS(=O)(=O)N1CCC2(CCN(c3ccnc4[nH]c(=O)ccc34)CC2)C1 [Example 126, 8-(7-oxo-7,8-dihydro-1,8-naphthyridin-4-yl)-2,8-diazaspiro[4,5]decane-2-sulfamide]"
12,1 to 10,NS(=O)(=O)N1CCCN(c2ccnc3[nH]c(=O)ccc23)CC1 [Example 127]

# Second part, the compound before the results:
row,Compound,IC50 [µM]
1,"Nc1ccc(Nc2ccnc3[nH]c(=O)ccc23)cc1 [Example 81, 5-((4-aminophenyl)amino)-1,8-naphthyridin-2(1H)-one dihydrochloride]",< 1
2,"NCc1ccc(Nc2ccnc3[nH]c(=O)ccc23)cc1 [Example 82, 5-((4-(aminomethyl)phenyl)amino)-1,8-naphthyridin-2(1H)-one dihydrochloride]",< 1
3,"O=c1ccc2c(Nc3ccc4c(c3)CNC4)ccnc2[nH]1 [Example 84, dihydrochloride]",< 1
4,"O=c1ccc2c(Nc3ccc4c(c3)CCNC4)ccnc2[nH]1 [Example 85, 5-((1,2,3,4-tetrahydroisoquinolin-6-yl)amino)-1,8-naphthyridin-2(1H)-one dihydrochloride]",< 1
5,"O=c1ccc2c(Nc3cc4c(cc3F)CNCC4)ccnc2[nH]1 [Example 86, 5-((7-fluoro-1,2,3,4-tetrahydroisoquinolin-6-yl)amino)-1,8-naphthyridin-2(1H)-one dihydrochloride]",1 to 10
6,"O=c1ccc2c(Nc3ccc4c(c3)CNCCC4)ccnc2[nH]1 [Example 87, 5-((2,3,4,5-tetrahydro-1H-benzo[c]azepin-8-yl)amino)-1,8-naphthyridin-2(1H)-one dihydrochloride]",> 10
7,"NS(=O)(=O)Nc1cccc(Nc2ccnc3[nH]c(=O)ccc23)c1 [Example 88, N-(3-((7-oxo-7,8-dihydro-1,8-naphthyridin-4-yl)amino)phenyl)sulfamide dihydrochloride]",< 1
8,"NS(=O)(=O)NCc1cccc(Nc2ccnc3[nH]c(=O)ccc23)c1 [Example 89, N-(3-((7-oxo-7,8-dihydro-1,8-naphthyridin-4-yl)amino)benzyl)sulfamide dihydrochloride]",< 1
9,"NS(=O)(=O)NCc1cc(Nc2ccnc3[nH]c(=O)ccc23)ccc1F [Example 90, N-(2-fluoro-5((7-oxo-7,8-dihydro-1,8-naphthyridin-4-yl)amino)benzyl)sulfamide dihydrochloride]",< 1
10,"NS(=O)(=O)NCc1ccc(F)c(Nc2ccnc3[nH]c(=O)ccc23)c1 [Example 91, N-(4-fluoro-3-((7-oxo-7,8-dihydro-1,8-naphthyridin-4-yl)amino)benzyl)sulfamide dihydrochloride]",< 1
11,"NS(=O)(=O)NCCc1cccc(Nc2ccnc3[nH]c(=O)ccc23)c1 [Example 92, N-(3-((7-oxo-7,8-dihydro-1,8-naphthyridin-4-yl)amino)phenethyl)sulfamide dihydrochloride]",< 1
12,"NS(=O)(=O)NCCc1ccc(F)c(Nc2ccnc3[nH]c(=O)ccc23)c1 [Example 95, N-(4-fluoro-3-((7-oxo-7,8-dihydro-1,8-naphthyridin-4-yl)amino)phenethyl)sulfamide dihydrochloride]",< 1
13,"NS(=O)(=O)NCc1ccc(Nc2ccnc3[nH]c(=O)ccc23)cc1 [Example 98, N-(4-((7-oxo-7,8-dihydro-1,8-naphthyridin-4-yl)amino)benzyl)sulfamide dihydrochloride]",1 to 10
14,"NS(=O)(=O)N(Cc1ccc(Nc2ccnc3[nH]c(=O)ccc23)cc1)C1CC1 [Example 99, N-cyclopropyl-N-(4-((7-oxo-7,8-dihydro-1,8-naphthyridin-4-yl)amino)benzyl)sulfamide dihydrochloride]",1 to 10
15,"NS(=O)(=O)NCc1ccc(Nc2ccnc3[nH]c(=O)ccc23)c(Cl)c1 [Example 100, N-(3-chloro-4-((7-oxo-7,8-dihydro-1,8-naphthyridin-4-yl)amino)benzyl)sulfamide dihydrochloride]",1 to 10
16,"NS(=O)(=O)N1Cc2ccc(Nc3ccnc4[nH]c(=O)ccc34)cc2C1 [Example 101, 5-((7-oxo-7,8-dihydro-1,8-naphthyridin-4-yl)amino)isoindolin-2-yl)sulfamide dihydrochloride]",< 1
17,"NS(=O)(=O)N1CCCc2ccc(Nc3ccnc4[nH]c(=O)ccc34)cc2C1 [Example 103, (8-((7-oxo-7,8-dihydro-1,8-naphthyridin-4-yl)amino)-1,3,4,5-tetrahydro-2 (1H)-benzo[c]azepin-2-yl)sulfamide dihydrochloride]",1 to 10
18,"NS(=O)(=O)N1CCc2cc(Nc3ccnc4[nH]c(=O)ccc34)ccc2C1 [Example 104, dihydrochloride]",1 to 10
19,"NS(=O)(=O)N1CCc2cc(Nc3ccnc4[nH]c(=O)ccc34)c(F)cc2C1 [Example 106, (7-fluoro-6-((7-oxo-7,8-dihydro-1,8-naphthyridin-4-yl)amino)-3,4-dihydroisoquinolin-2(1H)-yl) sulfamide dihydrochloride]",< 1
